From patent US12145923B2, “Tetrahydroisoquinoline compound, preparation method therefor, pharmaceutical composition containing same, and use thereof” (SHANGHAI INSTITUTE OF MATERIA MEDICA, CHINESE ACADEMY OF …, priority 2018, dated 2024)
pIC50: −log10 of the molar value. Values joined by “and” are separate entries in the source; they are usually repeats but may differ in a detail not shown here. Identical values can stand only once. Like-named read-outs stand apart in the source and are kept apart here.

Columns and labels:
[1] = target: Human PDE4D catalytic domain (Homo sapiens (Human), UniProt Q08499); test: Scintillation Proximity Assay (SPA), inhibition of PDE4D catalytic domain activity; format: biochemical; details: read-out: PDE4D enzyme activity inhibition rate %
Chain of Human PDE4D catalytic domain (Q08499 386-715): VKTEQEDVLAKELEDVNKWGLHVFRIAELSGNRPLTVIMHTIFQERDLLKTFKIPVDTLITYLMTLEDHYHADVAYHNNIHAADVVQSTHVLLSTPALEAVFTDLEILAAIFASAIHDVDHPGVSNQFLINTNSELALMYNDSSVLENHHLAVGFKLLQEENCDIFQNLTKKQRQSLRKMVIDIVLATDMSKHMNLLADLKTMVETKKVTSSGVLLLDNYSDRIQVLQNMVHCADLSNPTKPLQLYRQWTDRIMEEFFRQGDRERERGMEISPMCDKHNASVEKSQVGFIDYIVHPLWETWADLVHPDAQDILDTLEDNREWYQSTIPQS
Experimental: The scintillation Proximity Assay (SPA) method was used to determine the inhibitory effect of compounds on the activity of PDE4D catalytic domain. Human PDE4D catalytic domain protein was obtained by expression and purification in E. coli. […] [^3H]-cAMP, scintillation beads (RPNQO150, Perkin Elmer), and 96-well scintillation microplates (Isoplate-96, Perkin Elmer) were purchased from Perkin Elmer Company.
Finally, 10 μl [^3H]-cAMP (0.005 μCi/μl) was added and incubated for 30 min at 30° C. in a water bath. 50 μl SPA beads was added to quench the reaction, shaked appropriately, and stood for 20 minutes. A microplate scintillation counter was used.

[2] = system: RAW 264.7 cells; test: Cytotoxicity on RAW 264.7 cells (CCK-8 method); format: cell-based, mouse
[3] = system: TNF-α secretion in PBMC; test: Inhibition of LPS-stimulated TNF-α secretion in PBMC (ELISA); format: cell-based; details: Homo sapiens, PBMC; for inhibition at 1 µM / inhibition at 10 µM: read-out: Inhibition rate %
Text: According to the difference in cell density in human blood, PBMC (peripheral blood mononuclear cell, PBMC) was directly separated and purified by gradient centrifugation using lymphocyte separation fluid. The cell type was mononuclear cells in blood, mainly including lymphocytes (T/B), monocytes, macrophages, dendritic cells and other minor cell types, of which lymphocytes account for a large part, which can directly in vitro simulate the blood immune environment.
PBMC cells isolated from human blood were implanted into 96-well plates at 2*10^5/ml; compounds in gradients were added, with at least three replicates for each gradient; After the PBMCs were incubated at 37° C., 5% CO2 for 1 hour, LPS was added (the final concentration was 10 ug/ml) to stimulate PBMC to express TNF-α, and incubated for another 18-20 h at 37° C., 5% C02. The 96-well plate was collected. The background control with no stimulant and stimulation control wells were also set, with a total volume of 200 μl. The culture supernatant was collected by centrifugation, and the expression level of TNF-α in the culture supernatant was detected by ELISA.

[4] = system: tumor necrosis factor-α secretion in RAW 264.7 cells; test: Inhibition of LPS-stimulated tumor necrosis factor-α secretion in RAW 264.7 cells (ELISA); format: cell-based, mouse; details: Mus musculus, RAW264.7, 4 h, read-out: Tumor necrosis factor-α inhibition rate/%
Experimental: After the activation by bacterial lipopolysaccharide (LPS), various inflammatory mediators such as tumor necrosis factor-α will be released; Phosphodiesterase PDE4 is also expressed in macrophages, and the inhibitory activity of the compound on phosphodiesterase PDE4 can be reflected by detecting the secretion of tumor necrosis factor-α.
Under the stimulation of 1 μg/ml LPS (L5886, Sigma, St. Louis, MO, USA), the cells were cultured in a 37° C., 5% CO2 incubator for 4 h. The background control with no stimulant and stimulation control wells were also set, with a total volume of 200 μl. The culture supernatant was collected by centrifugation, and the secretion level of tumor necrosis factor-α in the culture supernatant was detected by enzyme-linked immunosorbent assay. The tumor necrosis factor-α detection kit was purchased from BD Pharmingen (San Diego, CA, USA).

inhibition at 1 µM ([1]; Compound concentration: 1 μM) [%]	SMILES	Cell survival rate/% ([2]; RAW 264.7, 0.5 μM)	Cell survival rate/% ([2]; RAW 264.7, 5 μM)	Cell survival rate/% ([2]; RAW 264.7, 50 μM)	inhibition at 1 µM [1] [%]	pIC50 [3]	inhibition at 1 µM [3] [%]	inhibition at 10 µM [3] [%]	inhibition at 0.5 µM [4] [%]	inhibition at 5 µM [4] [%]	inhibition at 50 µM [4] [%]
66.5	CCOc1cc2c(cc1OC)CCN(S(=O)(=O)c1ccccc1F)[C@H]2CCc1c[nH]c2ccc(OC)cc12 [(S)-C57, (S)-7-ethoxy-6-methoxy-1-(2-(5-methoxy-1H-indol-3-yl)ethyl)-2-(2-fluorophenyl)sulfonyl-1,2,3,4-tetrahydroisoquinoline]										
	CCOc1cc2c(cc1OC)CCN(C=O)C2CCc1c[nH]c2ccccc12 (stereo not shown) [Compound A4, 1-(2-(1H-indol-3-yl)ethyl)-7-ethoxy-6-methoxy-3,4-dihydroisoquinoline-2(1H)-formaldehyde]	100.6%	113.4%	95.3%							
	COc1ccc2[nH]cc(CC[C@H]3c4cc(C(F)F)c(OC)cc4CCN3C=O)c2c1 [(S)-C71, (S)-7-difluoromethyl-1-(2-(5-methoxy-1H-indol-3-yl)ethyl)-6-methoxy-3,4-dihydroisoquinoline-2(1H)-formaldehyde]				81.8						
	COC(=O)c1cc2c(cc1OC)CCN(C=O)[C@H]2CCc1c[nH]c2ccc(OC)cc12 [(S)-C66, methyl-(S)-2-formyl-6-methoxy-1-(2-(5-methoxy-1H-indol-3-yl)ethyl)-1,2,3,4-tetrahydroisoquinoline-7-carboxylate]				88.4						
42	CCOc1cc2c(cc1OC)CCN(S(=O)(=O)c1ccc(OC)cc1)[C@H]2CCc1c[nH]c2ccc(OC)cc12 [(S)-C60, (S)-7-ethoxy-6-methoxy-1-(2-(5-methoxy-1H-indol-3-yl)ethyl)-2-(4-methoxyphenyl)sulfonyl-1,2,3,4-tetrahydroisoquinoline]										
	COc1cc2c(cc1OCC1CC1)[C@H](CCc1c[nH]c3ccccc13)N(C=O)CC2 [(S)-A3, (S)-1-(2-(1H-indol-3-yl)ethyl)-7-(cyclopropyl-methoxy)-6-methoxy-3,4-dihydroisoquinoline-2(1H)-formaldehyde]	110.9%	86.5%	77.3%		5.58	31.2	76.6	-2.9	-3.5	54.6
20.5	CCOc1cc2c(cc1OC)CCN(S(=O)(=O)c1cccnc1)[C@H]2CCc1c[nH]c2ccc(OC)cc12 [(S)-C55]										
	COc1ccc2[nH]cc(CC[C@H]3c4cc(OC(F)(F)F)c(OC)cc4CCN3C=O)c2c1 [(S)-C63, (S)-7-trifluoromethoxy-1-(2-(5-methoxy-1H-indol-3-yl)ethyl)-6-methoxy-3,4-dihydroisoquinoline-2(1H)-formaldehyde]				75.3						
	COc1cc2c(cc1OC)[C@@H](CCc1c[nH]c3ccccc13)N(C=O)CC2 [(R)-A1, (R)-1-(2-(1H-indol-3-yl)ethyl)-6,7-dimethoxy-3,4-dihydroisoquinoline-2(1H)-formaldehyde]	102.7% and 135.9%	106.2% and 110.1%	89.3% and 122.5%							
70.8	CCOc1cc2c(cc1OC)CCN(S(=O)(=O)C1CCCCC1)[C@H]2CCc1c[nH]c2ccc(OC)cc12 [(S)-C49, (S)-7-ethoxy-6-methoxy-1-(2-(5-methoxy-1H-indol-3-yl)ethyl)-2-cyclohexylsulfonyl-1,2,3,4-tetrahydroisoquinoline]										
	CCOc1cc2c(cc1OC)CCN(C=O)[C@H]2CCc1c[nH]c2ccccc12 [(S)-A4, (S)-1-(2-(1H-indol-3-yl)ethyl)-7-ethoxy-6-methoxy-3,4-dihydroisoquinoline-2(1H)-formaldehyde]	103%	100.8%	98.1%							
83.1	COc1ccc2[nH]cc(CC[C@H]3c4cc(C(=O)O)c(OC)cc4CCN3C=O)c2c1 [(S)-C68, (S)-2-formyl-6-methoxy-1-(2-(5-methoxy-1H-indol-3-yl)ethyl)-1,2,3,4-tetrahydroisoquinoline-7-carboxylic acid]										
	CCOc1cc2c(cc1OC)CCN(C=O)C2Cc1c[nH]c2ccccc12 (stereo not shown) [Compound C10, 1-((1H-indol-3-yl)methyl)-7-ethoxy-6-methoxy-3,4-dihydroisoquinoline-2(1H)-formaldehyde]	119.5%	111.4%	94%							
	CCOc1cc2c(cc1OC)CCN(C=O)[C@H]2Cc1c[nH]c2ccccc12 [(S)-C10, (S)-1-((1H-indol-3-yl)methyl)-7-ethoxy-6-methoxy-3,4-dihydroisoquinoline-2(1H)-formaldehyde]	89.1%	84.6%	104.1%							
	COCC(=O)N1CCc2cc(OC)c(OC)cc2C1Cc1c[nH]c2ccccc12 (stereo not shown) [Compound C11, 1-(1-((1H-indol-3-yl)methyl)-6,7-dimethoxy-3,4-dihydroisoquinoline-2(1H)-yl)-2-methoxyethane-1-one]	97.9%	91.2%	87.3%			39.9	50	-12.7	-11.9	20.1
	CCOc1cc2c(cc1OC)CCN(C=O)[C@H]2Cc1c[nH]c2ccc(C)cc12 [(S)-C17, (S)-7-ethoxy-6-methoxy-1-((5-methyl-1H-indol-3-yl)methyl)-3,4-dihydroisoquinoline-2(1H)-formaldehyde]	101.7%	87.3%	103.9%				18.8	-32.2	-33.7	-13.4
	COc1cc2c(cc1OC)[C@H](Cc1c[nH]c3ccccc13)N(C(=O)CS(C)(=O)=O)CC2 [(S)-C13, (S)-1-(1-((1H-indol-3-yl)methyl)-6,7-dimethoxy-3,4-dihydroisoquinoline-2(1H)-yl)-2-(methanesulfonyl)ethane-1-one]	111.2%	91.4%	101.7%				29.9	-3	-13.7	-37.3
	CCOc1cc2c(cc1OC)CCN(C(=O)CS(C)(=O)=O)[C@H]2Cc1c[nH]c2ccccc12 [(S)-C15, (S)-1-(1-((1H-indol-3-yl)methyl)-7-ethoxy-6-methoxy-3,4-dihydroisoquinoline-2(1H)-yl)-2-(methanesulfonyl)ethane-1-one]	107.3%	110.5%	101.2%				-23.9	18	-4.5	-37.7
	COc1cc2c(cc1OCC1CC1)[C@H](CCc1c[nH]c3cc(C)ccc13)N(C=O)CC2 [(S)-C4, (S)-7-(cyclopropylmethoxy)-6-methoxy-1-(2-(6-methyl-1H-indol-3-yl)ethyl)-3,4-dihydroisoquinoline-2(1H)-formaldehyde]	97.6%	71.8%	77.3%		5.67	32	76.9	-30.1	-25.6	54.5
	CCOc1cc2c(cc1OC)CCN(C(=O)COC)[C@H]2Cc1c[nH]c2ccccc12 [(S)-C16, (S)-1-(1-((1H-indol-3-yl)methyl)-7-ethoxy-6-methoxy-3,4-dihydroisoquinoline-2(1H)-yl)-2-methoxyethane-1-one]	123.2%	133.1%	113.1%				1.89	2.6	12.7	10.4
	COc1cc2c(cc1OCC1CC1)C(CCc1c[nH]c3ccccc13)N(C=O)CC2 (stereo not shown) [Compound A3, 1-(2-(1H-indol-3-yl)ethyl)-7-(cyclopropyl-methoxy)-6-methoxy-3,4-dihydroisoquinoline-2(1H)-formaldehyde]	96.9%	108.2%	94%		5.24	0.84	65.7	-0.5	-15.5	27.3
	COc1cc2c(cc1OC)C(Cc1c[nH]c3ccccc13)N(CCS(C)(=O)=O)CC2 (stereo not shown) [Compound C12, 1-((1H-indol-3-yl)methyl)-6,7-dimethoxy-2-(2-(methylsulfonyl)ethyl)-1,2,3,4-tetrahydroisoquinoline]	93.6%	115.7%	103.8%			45.4	52.7	-15.1	-7.9	25.5
	CCOc1cc2c(cc1OC)CCN(C=O)[C@H]2Cc1c[nH]c2ccc(OC)cc12 [(S)-C18, (S)-7-ethoxy-6-methoxy-1-((5-methoxy-1H-indol-3-yl)methyl)-3,4-dihydroisoquinoline-2(1H)-formaldehyde]	118%	111.5%	112.9%				39.4	15.8	14.5	38.8
	CCOc1cc2c(cc1OC)CCN(CCS(C)(=O)=O)[C@H]2Cc1c[nH]c2ccccc12 [(S)-C14, (S)-1-((1H-indol-3-yl)methyl)-7-ethoxy-6-methoxy-2-(2-(methylsulfonyl)ethyl)-1,2,3,4-tetrahydroisoquinoline]	128.3%	98.8%	97.3%			17	54.5	2.4	-2.2	13.6
